Data taken from PubChem BioAssay (NCI).
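Growth conditions: 96-well plates. Treatment: test compound, 48 hours, 5 concentrations. Analysis: linear interpolation between bracketing concentrations; unreached endpoints set to highest concentration. At the TGI there is no net growth.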

Key:
Experiment in all cases: growth of human tumour cells (NCI), 48 h
[1] = test system: A549 NSCLC
[2] = test system: CCRF-CEM leukemia
[3] = test system: DU-145 prostate
[4] = test system: IGROV1 ovarian
[5] = test system: M14 melanoma
[6] = test system: MDA-MB-231 breast
[7] = test system: NCI-H226 lung
[8] = test system: NCI/ADR-RES ovarian
[9] = test system: OVCAR-8 ovarian
[10] = test system: RPMI-8226 leukemia
[11] = test system: SR leukemia
[12] = test system: UACC-62 melanoma

Nc1ncc2c(n1)-c1ccccc1OC2N1CCOCC1 (stereo unspecified)
TGI [1]: > 100 µM | TGI [2]: > 100 µM | TGI [3]: > 100 µM | TGI [4]: > 100 µM | TGI [5]: > 100 µM | TGI [6]: > 100 µM | TGI [7]: > 100 µM | TGI [8]: > 100 µM | TGI [9]: > 100 µM | TGI [10]: > 100 µM | TGI [11]: > 100 µM | TGI [12]: > 100 µM

Cc1ccc2c(c1)CC1(C2)Cc2ccc(C)cc2C1=O (stereo unspecified)
TGI [1]: > 100 µM | TGI [2]: 62.3 µM | TGI [3]: > 100 µM | TGI [4]: > 100 µM | TGI [5]: 71.6 µM | TGI [6]: 62.5 µM | TGI [7]: 61.6 µM | TGI [8]: 62.6 µM | TGI [9]: > 100 µM | TGI [10]: 95.3 µM | TGI [11]: 57 µM

COc1cc(-c2ccccc2)cn2c1nc1ccccc12
TGI [1]: 51.4 µM | TGI [2]: 70.7 µM | TGI [3]: > 100 µM | TGI [4]: 55.9 µM | TGI [5]: 43.4 µM | TGI [6]: 49.8 µM | TGI [7]: 39.7 µM | TGI [8]: 66.7 µM | TGI [9]: 64.4 µM | TGI [10]: 62 µM | TGI [11]: 99.6 µM | TGI [12]: 43.9 µM

CN1CCN(Cc2ccccc2)CC1CC#N (stereo unspecified)
TGI [1]: > 100 µM | TGI [2]: > 100 µM | TGI [3]: > 100 µM | TGI [4]: > 100 µM | TGI [6]: > 100 µM | TGI [7]: > 100 µM | TGI [8]: > 100 µM | TGI [9]: > 100 µM | TGI [10]: > 100 µM | TGI [11]: > 100 µM | TGI [12]: > 100 µM

NC(=O)NC(=O)c1cccc(NC(=O)CCl)c1
TGI [1]: > 28.1 µM | TGI [2]: 4.16 µM | TGI [3]: 5.42 µM | TGI [4]: 12.7 µM | TGI [6]: 8.38 µM | TGI [7]: 5.28 µM | TGI [8]: 12 µM | TGI [9]: 12.7 µM | TGI [10]: 13.6 µM | TGI [11]: 3.92 µM | TGI [12]: 2.63 µM

COc1cc(OC)nc(-n2c(N)c(C(=O)O)c3ccc([N+](=O)[O-])cc3c2=O)n1
TGI [1]: > 100 µM | TGI [2]: > 100 µM | TGI [3]: > 100 µM | TGI [4]: > 100 µM | TGI [5]: > 100 µM | TGI [6]: > 100 µM | TGI [7]: > 100 µM | TGI [8]: > 100 µM | TGI [9]: > 100 µM | TGI [10]: > 100 µM | TGI [11]: > 100 µM | TGI [12]: > 100 µM

CN1N=C(c2ccccc2)c2cc(Cl)ccc2N=C1N/N=C/c1ccc(N(C)C)cc1
TGI [1]: > 100 µM | TGI [2]: > 100 µM | TGI [3]: > 100 µM | TGI [4]: > 100 µM | TGI [5]: > 100 µM | TGI [6]: > 100 µM | TGI [7]: > 100 µM | TGI [8]: > 100 µM | TGI [9]: > 100 µM | TGI [10]: > 100 µM | TGI [11]: > 100 µM | TGI [12]: > 100 µM

c1ccc(COC[C@H]2C3OCC([C@H](OCc4ccccc4)[C@H]3OCc3ccccc3)N2Cc2ccccc2)cc1 (stereo partly specified)
TGI [1]: > 100 µM | TGI [2]: > 100 µM | TGI [3]: > 100 µM | TGI [4]: > 100 µM | TGI [5]: > 100 µM | TGI [6]: > 100 µM | TGI [7]: > 100 µM | TGI [8]: > 100 µM | TGI [9]: > 100 µM | TGI [10]: > 100 µM | TGI [11]: > 100 µM | TGI [12]: > 100 µM

COC(=O)C1=COC2OC3CC1C2C(C)O3 (stereo unspecified)
TGI [1]: > 100 µM | TGI [2]: > 100 µM | TGI [3]: > 100 µM | TGI [4]: > 100 µM | TGI [5]: > 100 µM | TGI [6]: > 100 µM | TGI [7]: > 100 µM | TGI [8]: > 100 µM | TGI [9]: > 100 µM | TGI [10]: > 100 µM | TGI [11]: > 100 µM | TGI [12]: > 100 µM

COc1cccc(CCn2c(N)c(C#N)c3ccc([N+](=O)[O-])cc3c2=O)c1
TGI [1]: > 46.4 µM | TGI [2]: > 31.6 µM | TGI [3]: > 46.4 µM | TGI [4]: > 31.6 µM | TGI [5]: > 31.6 µM | TGI [6]: > 46.4 µM | TGI [7]: > 31.6 µM | TGI [8]: > 46.4 µM | TGI [9]: > 46.4 µM | TGI [11]: 0.922 µM | TGI [12]: > 31.6 µM

CCN1C/C(=C\c2ccc(Cl)cc2)c2[nH]c(=O)c(C#N)c(-c3ccc(Cl)cc3)c2C1
TGI [1]: > 100 µM | TGI [2]: > 100 µM | TGI [3]: > 100 µM | TGI [4]: > 100 µM | TGI [5]: > 100 µM | TGI [6]: > 100 µM | TGI [7]: > 100 µM | TGI [8]: > 100 µM | TGI [10]: > 100 µM | TGI [11]: > 100 µM | TGI [12]: > 100 µM

COC1OC(Cn2cc([N+](=O)[O-])nc2C)C(O)C(O)C1O (stereo unspecified)
TGI [1]: > 100 µM | TGI [2]: > 100 µM | TGI [3]: > 100 µM | TGI [4]: > 100 µM | TGI [5]: > 100 µM | TGI [6]: > 100 µM | TGI [8]: > 100 µM | TGI [10]: > 100 µM | TGI [11]: > 100 µM | TGI [12]: > 100 µM

Cc1nn(C(=O)c2ccc(Cl)cc2)c2c1C(c1ccc(Cl)cc1)SC(N)=N2 (stereo unspecified)
TGI [1]: > 10 µM | TGI [2]: > 10 µM | TGI [3]: > 10 µM | TGI [4]: > 10 µM | TGI [5]: > 10 µM | TGI [6]: > 10 µM | TGI [7]: > 10 µM | TGI [8]: > 10 µM | TGI [9]: > 10 µM | TGI [10]: > 10 µM | TGI [11]: > 10 µM | TGI [12]: > 10 µM

O=c1[nH]c(=O)n(C2CC(O)C(COP(=O)(OCC(Cl)(Cl)Cl)OCC(Cl)(Cl)Cl)O2)cc1F (stereo unspecified)
TGI [1]: > 100 µM | TGI [2]: > 100 µM | TGI [3]: > 100 µM | TGI [4]: > 100 µM | TGI [5]: > 100 µM | TGI [6]: > 100 µM | TGI [7]: > 100 µM | TGI [8]: > 100 µM | TGI [9]: > 100 µM | TGI [10]: > 100 µM | TGI [11]: > 100 µM | TGI [12]: > 100 µM

C[C@]12CC[C@H](O)CC1=CC[C@@H]1[C@@H]2CC[C@]2(C)NC(=O)/C(=C\c3ccccc3)C[C@@H]12
TGI [1]: 33.4 µM | TGI [2]: 48.5 µM | TGI [3]: 33.5 µM | TGI [4]: 33.8 µM | TGI [5]: 29.2 µM | TGI [6]: 38.9 µM | TGI [7]: 34.3 µM | TGI [8]: 53 µM | TGI [9]: 47.6 µM | TGI [10]: 56 µM | TGI [11]: > 100 µM | TGI [12]: 38.6 µM

CCOC(=O)C1=NNC(C(=O)c2ccccc2)C1c1ccccc1 (stereo unspecified)
TGI [1]: 41.2 µM | TGI [2]: > 100 µM | TGI [3]: 25.9 µM | TGI [4]: > 34 µM | TGI [5]: 3.75 µM | TGI [6]: 12.2 µM | TGI [7]: 39.5 µM | TGI [8]: 12.3 µM | TGI [9]: 22 µM | TGI [10]: > 47.2 µM | TGI [11]: > 100 µM | TGI [12]: 8.63 µM

CCOC(=O)c1nc2cc(F)cc(F)c2[nH]c1=O
TGI [1]: > 100 µM | TGI [2]: > 100 µM | TGI [3]: > 100 µM | TGI [4]: > 100 µM | TGI [5]: > 100 µM | TGI [6]: > 100 µM | TGI [7]: > 100 µM | TGI [8]: > 100 µM | TGI [9]: > 100 µM | TGI [10]: > 100 µM | TGI [11]: > 100 µM | TGI [12]: > 100 µM

COC(=O)c1cc2c(cc1C(=O)OC)[C@@]1(C)CCCC(C)(C)C1CC2 (stereo partly specified)
TGI [1]: 55.9 µM | TGI [2]: 42.1 µM | TGI [3]: 33.7 µM | TGI [4]: 31.5 µM | TGI [5]: 70.8 µM | TGI [6]: 41.8 µM | TGI [7]: 33.8 µM | TGI [8]: 40.8 µM | TGI [9]: 74 µM | TGI [10]: 34.3 µM | TGI [11]: 57.7 µM | TGI [12]: 32.5 µM

O=C1NC(N2CCCCC2)=N/C1=C\c1ccco1
TGI [1]: > 100 µM | TGI [2]: > 100 µM | TGI [3]: > 100 µM | TGI [4]: > 100 µM | TGI [5]: > 100 µM | TGI [6]: > 100 µM | TGI [7]: > 100 µM | TGI [8]: > 100 µM | TGI [9]: > 100 µM | TGI [10]: > 100 µM | TGI [11]: > 100 µM | TGI [12]: > 100 µM
